Measurements as given in the supplement of paper PMC10307832.

Experiments:
Experiment in all cases: relative viability (nuclei count vs DMSO), 5 days (fraction); higher = more cells survive
[1] = compound: CCn1c(-c2nonc2N)nc2cnc(Oc3cccc(NC(=O)c4ccc(OCCN5CCOCC5)cc4)c3)cc21 + CS(=O)(=O)N1CCN(Cc2cc3nc(-c4cccc5[nH]ncc45)nc(N4CCOCC4)c3s2)CC1 [Pictilisib] (partner 1 µM)
Summary of the method: (§1)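 Each reported value is a median over duplicate plates. It expresses relative viability: treated-well nuclei count divided by vehicle-well nuclei count. Lung cancer cell lines in 1536-well plates were dosed by pin tool a day after seeding, alone with one drug or with a fixed anchor-drug dose plus five library-drug doses (not always all listed) in √10 steps, and nuclei were counted after 5 days.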

Mirin + Trametinib = compound: N=C1NC(=O)/C(=C/c2ccc(O)cc2)S1 [Mirin] + CC(=O)Nc1cccc(-n2c(=O)n(C3CC3)c(=O)c3c(Nc4ccc(I)cc4F)n(C)c(=O)c(C)c32)c1 [Trametinib] (partner 0.02 µM)
Summary of the method: as §1

[2] = compound: CCC1=CN=CN=C1N2CCN(CC2)CC3=NC4=C(N3)C=C(C=C4)C(F)(F)F + O=C(c1cc(Cc2n[nH]c(=O)c3ccccc23)ccc1F)N1CCN(C(=O)C2CC2)CC1 [Olaparib] (partner 8 µM)
Summary of the method: as §1

[3] = compound: CCn1c(-c2nonc2N)nc2cnc(Oc3cccc(NC(=O)c4ccc(OCCN5CCOCC5)cc4)c3)cc21 + Nc1nc2[nH]cc(CCc3ccc(C(=O)N[C@@H](CCC(=O)O)C(=O)O)cc3)c2c(=O)[nH]1 [Pemetrexed] (partner 0.2 µM)
Summary of the method: as §1

Cell Line | relative viability ([1]; first compound 0.04 µM) | relative viability ([1]; first compound 0.1265 µM) | relative viability ([1]; first compound 0.4 µM) | relative viability ([1]; first compound 1.265 µM) | relative viability ([1]; first compound 4 µM) | relative viability (Mirin + Trametinib; first compound 0.25 µM) | relative viability (Mirin + Trametinib; first compound 0.7906 µM) | relative viability (Mirin + Trametinib; first compound 2.5 µM) | relative viability (Mirin + Trametinib; first compound 7.906 µM) | relative viability (Mirin + Trametinib; first compound 25 µM) | relative viability ([2]; first compound 0.04 µM) | relative viability ([2]; first compound 0.1265 µM) | relative viability ([2]; first compound 0.4 µM) | relative viability ([2]; first compound 1.265 µM) | relative viability ([2]; first compound 4 µM) | relative viability ([3]; first compound 0.04 µM) | relative viability ([3]; first compound 0.1265 µM) | relative viability ([3]; first compound 0.4 µM) | relative viability ([3]; first compound 1.265 µM) | relative viability ([3]; first compound 4 µM)
NCI-H1355 | 0.446 | 0.418 | 0.338 | 0.32 | 0.277 | 0.457 | 0.482 | 0.48 | 0.374 | 0.399 | 0.775 | 0.654 | 0.732 | 0.667 | 0.643 | 1.12 | 1.05 | 0.769 | 0.835 | 0.581
EKVX | 0.46 | 0.505 | 0.491 | 0.406 | 0.481 | 0.373 | 0.246 | 0.382 | 0.35 | 0.376 | 0.877 | 0.734 | 0.89 | 0.684 | 0.862 | 0.516 | 0.371 | 0.346 | 0.359 | 0.313
NCI-H460 | 0.462 | 0.404 | 0.207 | 0.122 | 0.182 | 0.142 | 0.172 | 0.206 | 0.102 | 0.171 | 0.521 | 0.423 | 0.404 | 0.368 | 0.399 | 0.0568 | 0.0572 | 0.0592 | 0.0521 | 0.0564
NCI-H1975 | 0.253 | 0.192 | 0.157 | 0.143 | 0.148 | 0.379 | 0.337 | 0.365 | 0.337 | 0.55 | 0.9 | 0.729 | 0.735 | 0.718 | 0.667 | 0.29 | 0.269 | 0.23 | 0.188 | 0.178
HCC-78 | 0.3 | 0.311 | 0.208 | 0.262 | 0.367 | 0.647 | 0.715 | 0.885 | 0.709 | 0.72 | 0.893 | 0.669 | 0.79 | 0.588 | 0.78 | 0.959 | 0.847 |  | 0.929 | 0.951
NCI-H2085 | 0.53 | 0.692 | 0.664 | 0.596 | 0.524 | 0.514 | 0.465 | 0.519 | 0.511 | 0.59 | 0.717 | 0.692 | 0.728 | 0.777 | 0.72 | 0.888 | 0.591 | 0.601 | 0.591 | 0.664
H3255 | 0.63 | 0.593 | 0.517 | 0.473 | 0.52 | 0.604 | 0.752 | 0.557 | 0.412 | 0.566 | 0.597 | 0.535 | 0.556 | 0.504 | 0.521 | 0.528 | 0.512 | 0.503 | 0.432 | 0.431
NCI-H2126 | 0.568 | 0.525 | 0.461 | 0.567 | 0.649 | 0.604 | 0.568 | 0.552 | 0.56 | 0.501 | 0.913 | 0.877 | 0.856 | 0.927 | 0.901 | 0.8 | 0.715 | 0.51 | 0.765 | 0.642
LC-2-ad | 0.683 | 0.729 | 0.372 | 0.451 | 0.386 | 0.964 | 1.06 | 0.979 | 0.906 | 0.945 | 0.733 | 0.644 | 0.661 | 0.653 | 0.636 | 0.257 | 0.269 | 0.241 | 0.199 | 0.206
RERF-LC-KJ | 0.541 | 0.452 | 0.516 | 0.476 | 0.377 | 0.897 | 0.975 | 0.782 | 0.842 | 0.816 | 0.975 | 0.95 | 0.954 | 0.849 | 0.885 | 0.471 | 0.439 | 0.418 | 0.384 | 0.415
EBC-1 | 0.355 | 0.319 | 0.35 | 0.31 | 0.332 |  |  |  |  |  | 0.691 | 0.644 | 0.688 | 0.675 | 0.699 |  |  |  |  | 
HCC-15 | 0.955 | 0.718 | 0.701 | 0.664 | 0.744 | 0.341 | 0.368 | 0.363 | 0.368 | 0.365 | 0.688 | 0.727 | 0.685 | 0.762 | 0.668 | 0.229 | 0.214 | 0.217 | 0.197 | 0.205
NCI-H1563 | 0.629 | 0.678 | 0.638 | 0.66 | 0.569 |  |  |  |  |  |  |  |  |  |  | 0.82 | 0.769 | 0.694 | 0.595 | 0.734
COR-L 105 | 0.361 | 0.368 | 0.277 | 0.17 | 0.249 | 0.428 | 0.482 | 0.431 | 0.449 | 0.451 | 0.654 | 0.711 | 0.623 | 0.648 | 0.762 | 1.13 | 0.965 | 1.09 | 0.615 | 0.507
NCI-H596 | 0.399 | 0.416 | 0.37 | 0.359 | 0.389 | 0.872 | 0.77 | 0.763 | 0.873 | 0.835 | 0.737 | 0.64 | 0.575 | 0.649 | 0.747 | 0.438 | 0.484 | 0.462 | 0.451 | 0.48
LU99A | 0.392 | 0.322 | 0.192 | 0.317 | 0.214 | 0.515 | 0.496 | 0.56 | 0.395 | 0.55 | 0.308 | 0.282 | 0.276 | 0.28 | 0.301 | 0.227 | 0.167 | 0.168 | 0.163 | 0.158

Cell Line | relative viability ([1]; first compound 0.04 µM) | relative viability ([1]; first compound 0.1265 µM) | relative viability ([1]; first compound 0.4 µM) | relative viability ([1]; first compound 1.265 µM) | relative viability ([1]; first compound 4 µM) | relative viability (Mirin + Trametinib; first compound 0.25 µM) | relative viability (Mirin + Trametinib; first compound 0.7906 µM) | relative viability (Mirin + Trametinib; first compound 2.5 µM) | relative viability (Mirin + Trametinib; first compound 7.906 µM) | relative viability (Mirin + Trametinib; first compound 25 µM) | relative viability ([2]; first compound 0.04 µM) | relative viability ([2]; first compound 0.1265 µM) | relative viability ([2]; first compound 0.4 µM) | relative viability ([2]; first compound 1.265 µM) | relative viability ([2]; first compound 4 µM) | relative viability ([3]; first compound 0.04 µM) | relative viability ([3]; first compound 0.1265 µM) | relative viability ([3]; first compound 0.4 µM) | relative viability ([3]; first compound 1.265 µM) | relative viability ([3]; first compound 4 µM)
NCI-H1666 | 0.527 | 0.409 | 0.499 | 0.329 | 0.246 | 0.909 | 0.764 | 0.77 | 0.607 | 0.772 | 0.743 | 0.729 | 0.772 | 0.727 | 0.71 | 0.875 | 0.859 | 0.926 | 0.828 | 0.606
NCI-H2170 | 0.279 | 0.27 | 0.229 | 0.247 | 0.258 | 0.981 | 0.875 | 0.976 | 0.915 | 0.859 | 0.632 | 0.574 | 0.571 | 0.537 | 0.601 | 0.263 | 0.263 | 0.272 | 0.223 | 0.244
NCI-H522 |  |  |  |  |  | 0.682 | 0.741 | 0.872 | 0.768 | 0.519 | 0.601 | 0.613 | 0.573 | 0.526 | 0.558 | 1.06 | 0.763 | 0.917 | 0.703 | 0.595
LCLC-97TM1 | 0.261 | 0.363 |  | 0.351 | 0.236 | 0.172 | 0.179 | 0.235 | 0.176 | 0.165 | 0.425 | 0.418 | 0.335 | 0.329 | 0.278 | 0.228 | 0.196 |  | 0.192 | 0.18
NCI-H1299 | 0.956 | 0.735 | 0.74 | 0.618 | 0.393 |  |  |  |  |  | 0.942 | 0.969 | 0.975 | 0.982 | 0.949 |  |  |  |  | 
NCI-H322M | 0.579 | 0.541 | 0.581 | 0.693 | 0.591 | 0.497 | 0.506 | 0.555 | 0.564 | 0.571 | 0.792 | 0.811 | 0.725 | 0.672 | 0.85 | 0.714 | 0.716 | 0.617 | 0.47 | 0.559
NCI-H1395 | 0.795 | 0.508 | 0.491 | 0.384 | 0.536 | 0.996 |  | 1.03 | 1.01 | 1 | 0.459 | 0.482 | 0.461 |  | 0.469 | 0.961 | 0.825 | 0.736 | 0.519 | 0.434
Calu-6 | 1.06 | 0.808 | 0.797 | 0.54 | 0.403 |  |  |  |  |  | 0.681 | 0.591 | 0.523 | 0.556 | 0.483 |  |  |  |  | 
NCI-H1703 | 0.242 | 0.312 | 0.206 | 0.215 | 0.188 |  |  |  |  |  | 0.511 | 0.536 | 0.397 | 0.332 | 0.396 |  |  |  |  | 
NCI-H2342 |  |  |  |  |  | 0.805 | 0.853 | 0.803 |  | 0.751 | 0.51 | 0.402 | 0.384 | 0.275 | 0.34 | 0.75 | 0.782 | 0.736 | 0.474 | 0.76
NCI-H727 | 0.613 | 0.741 | 0.604 | 0.487 | 0.345 | 0.443 | 0.348 | 0.41 | 0.341 | 0.34 | 0.73 | 0.593 | 0.719 | 0.61 | 0.641 |  |  |  |  | 
SW 900 |  |  |  |  |  | 0.95 | 0.76 | 0.826 | 0.971 | 0.653 | 0.928 | 0.764 | 0.863 |  | 0.82 | 0.526 | 0.49 | 0.439 | 0.442 | 0.444
ABC-1 | 1.34 | 0.599 | 0.494 | 0.442 | 0.401 |  |  |  |  |  |  |  | 0.646 | 0.649 | 0.536 |  |  |  |  | 
NCI-H1648 |  |  |  |  |  | 0.448 |  | 0.41 | 0.457 | 0.389 | 0.985 |  |  | 0.558 | 0.673 | 1.01 | 1.13 | 0.828 | 0.964 | 0.78
IA-LM | 0.751 | 0.538 | 0.634 | 0.733 | 0.674 |  |  |  |  |  | 0.649 | 0.838 | 0.812 | 0.703 | 0.765 |  |  |  |  | 
A549 | 0.801 | 0.408 | 0.436 | 0.139 | 0.0926 |  |  |  |  |  | 0.318 | 0.179 | 0.333 | 0.333 | 0.387 |  |  |  |  | 
